Results taken from patent US20230095498A1, “NOVEL COMPOUND AND USE THEREOF” (THE CATHOLIC UNIVERSITY OF KOREA INDUSTRY-ACADEMIC …, priority 2020, published 2023).

Key:
[1] = target: T1, S1P (Sphingosine 1-phosphate) lyase (Mus musculus, UniProt Q8R0X7); assay: S1P lyase (SPL) activity in liver lysate, HPLC; type: biochemical; conditions: 5 uM inhibitor, 37° C. for 1 hour
T1 construct: After homogenizing the liver tissue of an experimental animal in a lysis buffer; from tissue; host or cells: liver tissue homogenate of an experimental animal
T1 sequence (Q8R0X7 1-568): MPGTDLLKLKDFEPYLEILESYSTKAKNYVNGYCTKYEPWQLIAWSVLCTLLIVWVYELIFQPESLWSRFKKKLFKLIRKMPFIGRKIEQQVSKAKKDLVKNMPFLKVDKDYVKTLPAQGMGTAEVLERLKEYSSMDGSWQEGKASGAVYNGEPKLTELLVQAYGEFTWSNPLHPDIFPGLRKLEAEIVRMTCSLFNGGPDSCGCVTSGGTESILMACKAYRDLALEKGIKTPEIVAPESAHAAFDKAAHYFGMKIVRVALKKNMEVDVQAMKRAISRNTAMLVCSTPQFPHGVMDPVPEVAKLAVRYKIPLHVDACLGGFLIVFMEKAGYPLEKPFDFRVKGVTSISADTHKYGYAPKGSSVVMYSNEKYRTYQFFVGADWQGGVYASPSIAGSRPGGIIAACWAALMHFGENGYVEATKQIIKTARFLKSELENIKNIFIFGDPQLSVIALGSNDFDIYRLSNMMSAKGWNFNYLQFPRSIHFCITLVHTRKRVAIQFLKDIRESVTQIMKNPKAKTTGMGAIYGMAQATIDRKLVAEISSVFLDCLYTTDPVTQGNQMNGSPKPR
Procedure: After homogenizing the liver tissue of an experimental animal in a lysis buffer, protein quantification was performed to secure the concentration, and a mixed solution was prepared under the conditions shown in Table 1 below and reacted at 37° C. for 1 hour.

[2] = test system: HK-2 cells; assay: Cell viability (CCK-8) in HK-2 cells under cytotoxicity induction by tacrolimus; type: cell-based, human; conditions: for survival rate: Nil = 100%
Procedure: The human kidney-2 cell line used in this experiment was purchased from ATCC (Manassas, Va., USA) and used. These cells were cultured in Dulbecco's modified Eagle's medium (DMEM; Wisent) containing 10% fetal bovine serum (FBS; Wisent, St. Bruno, Que, Canada), 100 U/mL penicillin, and […] streptomycin (Wisent) in 5% CO2, 37° C. incubator. After 80% seeding of HK-2 cells, 24 hours later, tacrolimus was treated at a concentration of 60 to 70 μg/ml and SD911 was treated at a concentration of 1 to 20 μM and reacted for 3 to 12 hours. In the case of cells isolated as a single cell from mouse spleen tissue, after seeding 2×10^5/cell/200 μl in a 96-well plate in triplicate, each SD911 compound was treated with 1 to 20 μM and reacted for 3 days. Thereafter, the cell counting kit-8 (CCK-8, Dojindo molecular, Rockville, Mass., USA) reagent was treated for 2 hours, and then measured and analyzed at absorbance of 450 nm. The cytoprotective effect of an SD911 compound was investigated under HK-2 cytotoxicity induction by tacrolimus (Tac).

[3] = test system: IL-17; assay: IL-17 ELISA of cell culture medium under anti-CD3 immune activity; type: cell-based, mouse; conditions: anti-CD3 stimulation, 3 days, compared to group not treated with SD911
Procedure: (§1) Cell culture for ELISA was coated with 250 ul of mouse anti-CD3 antibody diluted in ccPBS with 0.5 μg/ml in a 24-well plate as many as the number of conditions. After incubation for 2 hours, the supernatant was removed and the cells were seeded at 1×10^6/cells/1 ml and then treated with each drug. After culturing for 3 days, only the cell culture medium was removed and used as IL-10 and IL-17 ELISA samples.

[4] = test system: HK-1 cells; assay: Tac-induced apoptosis analysis with PI and Annexin-V; type: cell-based, human; conditions: Tac combined with SD911 (10 μM), compared to Tac alone
Procedure: In HK-1 cells, the effect of SD911 on ROS production inhibitory ability and apoptosis reduction was identified. Based on the cell viability test results of Example 2 (FIG. 2), inhibitory effects of SD911 on ROS production were investigated at 1, 5, and 10 μM of SD911.

[5] = test system: immunodeficient mice (NSG) injected with transplantation rejection patient PBMCs; assay: Transplantation rejection patient imitation avatar (humanized NSG mouse) model, immunosuppressant effect; type: in vivo; conditions: group injected with transplantation rejection patient PBMCs
Excerpt: In order to produce the transplantation rejection avatar animal model of an embodiment of the present invention, PBMCs (peripheral blood mononuclear cells) derived from normal or transplantation rejection patients were intravascularly injected into 8 to 10 week old immunodeficient mice (NSG) at 5×10^6/mice. After 3 weeks, the engraftment of normal or transplantation rejection patients (kidney transplantation rejection patients) cells in the blood was identified in blood cells. Thereafter, the mice were sacrificed 4 weeks after cell transplantation to identify the infiltration of human cells and histological changes in the tissue (FIG. 8).
In order to identify that the transplantation rejection patient imitation avatar model in Example 8 above was properly constructed, engraftment of human cells was analyzed through flow cytometry. Specifically, blood was obtained from the transplantation rejection humanized mice of Example 1 (normal PBMC injection group, HC; transplantation rejection patient PBMC injection group, Patient), and then cells that were positive in reaction with human antibodies were analyzed. In addition, blood […] (SCR) concentration was measured as an index for measuring kidney damage in PBMC-injected mice of normal subjects and transplantation rejection patients. SCR was measured by the quantitative enzymatic colorimetric method (Stanbio laboratory, 0430-120) by isolating serum in animal blood.
Specifically, the transplantation rejection humanized mouse model established in Example 8 above was classified as 1) a normal PBMC injection group, 2) a normal PBMC injection group treated with an immunosuppressant, 3) a transplantation rejection patient PBMC injection group, and 4) a transplantation rejection patient PBMC injection group treated with an immunosuppressant. SD911 was used as the immunosuppressant. Specifically, the animal model of Example 8 above was treated with SD911 at 3 weeks after engraftment of PBMCs. and the same amount of physiological saline was treated as a control group. […]

[6] = test system: HK-2 cells; assay: Reactive oxygen species (ROS) measurement by DCF-DA flow cytometry in HK-2 cells; type: cell-based, human
Procedure: After 80% seeding of HK-2 cells, 24 hours later, tacrolimus was treated at a concentration of 60 to 70 μg/ml and SD911 was treated at a concentration of 1 to 20 μM and reacted for 3 to 12 hours, and then 10 μM of DCF-DA (Molecular probes, Carlebad, Calif., USA) was reacted at 37° C. for 1 hour. Then, cells were harvested and analyzed with 0.05% Trypsin and 0.53 mM EDTA. For analysis, aggregated or broken cells were removed using FSC (forward side scatter) and SSC (side scatter) scatter plots (dot plot) using a FACS Calibur (BD bioscience, San Jose, Calif., USA), and the fluorescence fraction was analyzed in the FL-1H channel (Excitation 488 nm, Emission 513 to 535 nm). Based on the cell viability identification results of Example 1, the ROS production inhibitory effect on 1, 5, and 10 μM of SD911 was investigated. […] In […] cells, the effect of SD911 on ROS production inhibitory ability and apoptosis reduction was identified. Based on the cell viability test results of Example 2 (FIG. 2), inhibitory effects of SD911 on ROS production were investigated at 1, 5, and 10 μM of SD911.

[7] = test system: IL-10; assay: IL-10 ELISA of cell culture medium under anti-CD3 immune activity; type: cell-based, mouse; conditions: anti-CD3 stimulation, 3 days, compared to group not treated with SD911
Procedure: as §1

[8] = test system: mouse splenocytes; assay: Toxicity test (CCK-8) on mouse splenocytes; type: cell-based; conditions: SD911 1, 5, 20 μM, 3 days
Procedure: After 80% seeding of HK-2 cells, 24 hours later, tacrolimus was treated at a concentration of 60 to 70 μg/ml and SD911 was treated at a concentration of 1 to 20 μM and reacted for 3 to 12 hours. In the case of cells isolated as a single cell from mouse spleen tissue, after seeding 2×10^5/cell/200 μl in a 96-well plate in triplicate, each SD911 compound was treated with 1 to 20 μM and reacted for 3 days. Thereafter, the cell counting kit-8 (CCK-8, Dojindo molecular, Rockville, Mass., USA) reagent was treated for 2 hours, and then measured and analyzed at absorbance of 450 nm.

| reduction of S1P lyase activity compared to the control [1] | SMILES | survival rate ([2]; 1 μM SD911 in combination with tacrolimus) | survival rate ([2]; 5 μM SD911 in combination with tacrolimus) | survival rate ([2]; 10 μM SD911 in combination with tacrolimus) | survival rate ([2]; 20 μM SD911 in combination with tacrolimus) | own drug toxicity (cell viability compared to Nil) ([2]; SD911 alone at 1, 5, 10 and 20 μM) | IL-17 level (ELISA) [3] | ratio of necrotic cells, apoptotic cells, and early apoptotic cells & necrotic cells [4] | damage to kidney tissue (GN score, IN score, Vasculitis) ([5]; SD911 at 3 weeks after engraftment, sacrifice 1 week later) | infiltration of IL-17 positive cells in kidney tissue ([5]; immunohistochemical staining) | infiltration of human CD4-positive cells in kidney tissue ([5]; immunohistochemical staining) | ROS (DCF-DA fluorescence fraction) ([6]; 1 μM SD911 combined with tacrolimus) | ROS (DCF-DA fluorescence fraction) ([6]; 5 μM SD911 combined with tacrolimus) | ROS (DCF-DA fluorescence fraction) ([6]; 10 μM SD911 combined with tacrolimus) | fluorescence fraction of DCF-DA (ROS) ([6]; SD911 alone at 1, 5 and 10 μM, compared to Nil) | IL-10 level (ELISA) [7] | toxicity on immune cells (cell viability vs Nil group) [8] | survival rate ([2]; tacrolimus (Tac) alone) | ROS (DCF-DA fluorescence fraction) ([6]; tacrolimus (Tac) alone, induction of HK-2 cytotoxicity) |
| --- | --- | --- | --- | --- | --- | --- | --- | --- | --- | --- | --- | --- | --- | --- | --- | --- | --- | --- | --- |
| about 30% | C[C@@H]1CN(c2nnc(Oc3ccccc3)c3ccccc23)CCN1c1ccc(C#N)cn1 [SD911, 6-((R)-2-methyl-4-(1-phenoxyphthalazin-4-yl)piperazin-1-yl)pyridine-3-carbonitrile] | 81.7% | 81.8% | 72.0% | 37.4% | did not have its own drug toxicity | decreased IL-17 | significantly alleviated compared to Tac alone | the damage to the kidney tissue was reduced | significantly reduced | significantly reduced | 36.5% | 13.7% | 9.3% | almost no difference from that of Nil | increased IL-10 in a concentration-dependent manner | no significant difference compared to the Nil group | – | – |
| – | C=CC[C@@H]1/C=C(\C)C[C@H](C)C[C@H](OC)[C@H]2O[C@@](O)(C(=O)C(=O)N3CCCC[C@H]3C(=O)O[C@H](/C(C)=C/[C@@H]3CC[C@@H](O)[C@H](OC)C3)[C@H](C)[C@@H](O)CC1=O)[C@H](C)C[C@@H]2OC [tacrolimus, reference compound] | – | – | – | – | – | – | – | – | – | – | – | – | – | – | – | – | 56.7% | 31.6% |
